The values below come from patent US9873705B2, “Vinylogous thioester compounds and methods of use” (THE TRUSTEES OF DARTMOUTH COLLEGE, priority 2015, dated 2018).

Assay [1] relates to p62 and LC3B protein expression in U87-MG cells. The assay can be described thus: Western blot of autophagy markers p62 and LC3B. In kind it is cell-based, human. The text has this: Ras dysregulated tumors depend on autophagy to remove damaged mitochondria and allow for their survival. […] LC3B I is lipidated to form LC3B II following induction of autophagy. LC3B II is recruited and subsequently integrated into the autophagosome. p62 functions as an adaptor protein in autophagy by binding to both ubiquitin-labeled damaged cargo such as protein aggregates or mitochondria and LC3B II to facilitate cargo uptake into the autophagosome. Degradation of the cargo occurs when the autophagosome fuses with the lysosome; when autophagy is inhibited with hydroxychloroquine (HCQ), a drug that prevents acidification of the lysosome, both LC3B II and p62 accumulate as derogation of the autophagosome is prevented, making them valuable markers of autophagic flux.
The data for FIG. 4 was obtained as follows: U87-MG cells were plated in 6-well plates at a concentration of 500,000 cells/well and allowed to adhere overnight. Cells were treated for 12 h with either DMSO or 2 μM Y102, followed by an additional 12 h co-treatment with or without 50 μM HCQ. Following treatment, cells were harvested using 0.25% trypsin, rinsed with PBS, and lysed with 75 μL modified RIPA buffer (50 mM NaCl, 1% v/v nonidet P40, 0.5% w/v sodium deoxycholate, 0.05% w/v sodium dodecyl sulfate, 50 mM Tris pH 8.0) containing 1 mM NaVO4, 1 mM NaF, 1 mM phenylmethylsulfonyl fluoride, 0.1 μg/mL leupeptin, 100 μM benzamidine HCl, 1 μM aprotinin, 0.1 μg/mL soybean trypsin inhibitor, 0.1 μg/mL pepstatin, and 0.1 μg/mL antipain. Protein was quantified using a BCA assay kit (Pierce). 40 μg of protein prepared in 1× Laemmli sample buffer (50 mM Tris pH 6.8, 0.02% w/v bromophenol blue, 2% w/v sodium dodecyl sulfate, 10% v/v glycerol, 1% v/v beta-mercaptoethanol, 12.5 mM EDTA) was separated on a 4-15% polyacrylamide gel using sodium dodecyl sulfate-polyacrylamide gel electrophoresis. Protein was transferred to nitrocellulose membrane, blocked in 5% nonfat milk in TBST, and probed with primary antibodies anti-LC3BI/II (Cell Signaling, 1:1000, overnight at 4° C.), anti-p62/SQSTM-1 D-3 (Santa Cruz, 1:1000, 1 h at room temperature), or anti-α-tubulin B-1-2-5 (Santa Cruz, 1:10000, 1 h at room temperature) in 2% nonfat milk in TBST. Blots were incubated in 1:20,000 anti-rabbit HRP or 1:10,000 anti-mouse HRP secondary antibodies diluted in 2% nonfat milk in TBST for 1 h at room temperature. Film was exposed to standard ECL (Pierce)-coated blots and developed using a standard film processor.
A general note: Immunoblotting shows a protein as a band on a membrane.

Assay [2] deals with mitochondria of U87-MG cells. Description: Mitotracker Red CMXRos mitochondrial phenotype imaging. It is filed as cell-based, human. Particulars: 24 h, 2 or 4 μM. The procedure:
To examine whether there was a change in the mitochondrial phenotype of cells following Y102 treatment, Mitotracker Red CMXRos, a fluorescent dye whose accumulation is dependent upon membrane […], was used.
The data for FIG. 7 was obtained as follows: U87-MG cells were plated on poly-L-lysine (Sigma) coated coverslips at a concentration of 50,000 cells/well in a 24-well plate and allowed to adhere overnight. Cells were treated for 24 h with DMSO, 2 μM Y102, 4 μM Y102, or 50 μM HCQ. 30 minutes prior to collection, cells were stained with 100 nM Mitotracker Red CMXRos (Cell Signaling Technology, red) in media at 37° C. Cells were fixed for 10 minutes with 4% methanol-free paraformaldehyde, permeabilized for 15 minutes with 0.5% Triton X-100, blocked with immunofluorescence buffer (2%[v/v] goat serum, 0.2%[v/v] Triton X-100 and 0.05%[w/v] sodium azide in PBS) for 1 h, and stained for 1 h at room temperature for the autophagy marker p62 using anti-p62/SQSTM-1 D-3 (Santa Cruz, 1:500, 1 h at room temperature). Following 3 washes with PBST, cells were stained with goat anti-mouse 488 (Jackson ImmunoResearch Laboratories) secondary antibody for 1 h (green; not shown). After an additional two washes with PBST, cell nuclei were stained with 0.33 μg/mL DAPI (Molecular Probes) for 5 minutes (blue). Coverslips were mounted on glass slides with ProLong Gold antifade medium. […]

“Also recorded” adds a separate entry of the source.

As for `Cn1cnnc1S/C=C/C(=O)c1ccc(F)cc1` [Y102], the “LC3B I/II conversion (LC3B II accumulation)” value is listed as “LC3B II accumulation occurred, but not as robustly as with HCQ alone; also recorded: LC3B I/II conversion was seen” in assay [1] (12 hours Y102 followed by 12 hours HCQ co-treatment) and “not found to accumulate; also recorded: not LC3B I/II conversion” in assay [1] (U87-MG, Western blot, single agent, 2 μM Y102, 50 μM HCQ). The “p62 accumulation (autophagy marker)” value in assay [1] (U87-MG, Western blot, 24 hours, 2 μM Y102, 50 μM HCQ) was “accumulation of the autophagy marker p62”. The results for the “mitochondrial phenotype (Mitotracker Red CMXRos)” value in assay [2] and in assay [2] (listed as Y1022) were “altered mitochondrial phenotype; also recorded: perinuclear clustering of the mitochondria” and “perinuclear accumulation of the mitochondria”, respectively.
